From US5330992A, “1-cyclopropyl-4-pyridyl-quinolinones” (priority 1992, dated 1994)

Assays:
[1] = In vivo antitumor assay, Panc03(sc); set-up: species or system mouse; conditions: mouse, in vivo
Excerpt: (§1) Mice: Inbred: C3H/He and NCR-nu; and Hybrids: B6D2Fl (C57BL/6 females X DBA/2 males, CD2Fl (Balb/c females X DBS/2 males) and B6x C3fl (C57BL/6 x C3H) were bred at Wayne State University from strained obtained from the Frederick Cancer Research Facility, Frederick, Md. or purchased from commercial suppliers.
(§2) Tumors: Murine Tumor: P388 and an adriamycin-resistant (ADR) subline P388/ADR leukemia and the following transplantable solid tumors of mice were used for in Vivo testing: B16 melanoma (B16), pancreatic ductal adenocarcinoma No. 03 (Panc 03), colon adenocarcinoma No. 38 (colo 38), mammary ductal adenocarcinoma No. 16/C (Mam16) and an adriamycin-resistantsubline Mam16C/ADR. Human tumor: A single human tumor, mammary carcinoma MX-1 (MX1) was used for in vivo testing. All tumors are in the Developmental Therapeutics Program frozen tumor respository, maintained by the Biological Testing Branch, Frederick Md. Each has a detailed description, code identification number, and list of references at the National Tumor Repository. Murine tumors were maintained in the mouse strain of origin and were transplanted in the appropriate F1 hydrid (or the strain of origin) for therapy trials. Human mammary carcinoma MX-1 MX1) was maintained as a subcutaneous implant in either athymic Swiss (Cr: NIH(S)-nu) or athymic random bred (NCR-nu) mice and transplanted in NCR-nu for therapy trials.
(§3) Chemotherapy: For pancreatic ductal adenocarcinoma No. 3, colon adenocarcinoma No. 38 (colo38), lung carcinoma No. 12 (LC12) and both adriamycin-sensitive (RP) and -resistant ADR) mammary ductal adenocarcinoma No. 16 (Mam16) tumors, the following methods were used to help ensure a more uniform tumor burden per mouse (thus reducing the requirement for greater numbers of mice per group), bilateral tumor implants were used. The animals necessary to begin an experiment were pooled, implanted bilaterally s.c. on day zero with 30-60-mg tumor fragments using a 12-gauge trocar, and again pooled before randomization to the various treatment and control groups. Chemotherapy was started within three days after tumor implantation while the number of cells per mouse was relatively small (1×10^7 […]).
(§4) Quantitative end points used assess antitumor activity included % Increased Life Span (% ILS), Tumor Cell Kill (Log10 kill), and Tumor Growth Inhibition (T/C). Long Term Survivors (45 or 60 day) were excluded from calculations of % ILS and Tumor Cell Kill.
(§5) The log10 cell kill was calculated from the following formula: [formula] where T-C is the tumor difference in the median day of death between the treated (T) and the control (C) groups and Td is the tumor doubling time (in days), the latter estimated from the best fit straight line from a log-linear growth plot of the control-group tumors in exponential growth. The conversion of the T-C values to log10 cell kill is possible because the Td for tumors regrowing post-treatment approximated the Td values of the tumors in untreated control mice.
(§6) Tumors were measured with a caliper once or twice weekly (as needed) until either tumors exceeded 1600 mg or cure was assured. Tumor weights were estimated from two-dimensional measurements: Tumor Weight (mg)=(a×b^2) / 2, where a and b are the tumor length and width (nun) respectively. Measurements were carried out simultaneously in both treatment and control groups. When the control group tumors reached approximately 750-1500 mg in size (median of group), the median tumor weight of each group was determined (including zeros). The T/C value in percent is an indiation of antitumor effectiveness. The % T/C was calculated from the following formula for solid murine tumor models: [formula] where T and C are median tumor weights of the treatment and control groups, respectively. A T/C equal to or less than 42% is considered significant antitumor activity. […]

[2] = system: pancreatic ductal adenocarcinoma No. 03 (Panc 03); test: In vivo antitumor assay, Panc03(sc); set-up: species or system mouse
Excerpt: as §1, §2, §3, §4, §5, §6

[3] = In vivo antitumor assay, P388(ip); conditions: mouse, in vivo
Excerpt: as §1, §2
(§7) For P388 and P388/ADR leukemia studies the tumor cells were implanted either IP or intravenously (IV) on day zero and treatment was started on day one. For B16 melanoma (B16) studies, the tumor cells were implanted IP on day zero and treatment was started on day one. Tirered controls were also included to facilitate the calculation of tumor cell kill. For mammary carcinoma MX-1 studies, tumors were implanted with 1) subcutaneously (sc) (14-mg fragment of s.c. donor tumor) in the axillary region or 2) under the subrenal capsule (src) (10×10×10 ocular micrometer unit fragment of s.c. donor tumor). Treatment started on the day after subrenal capsule tumor implant or when the subcutaneous tumor implant had reached 100-700 mg.
as §4
(§8) Endpoints were calculated as follows: % ILS [formula] where Dt is the median day of death for treated and Dc is the median day of death for control groups. A % ILS ≥20 or ≥25 for P388 and B16 intraperitoneal models, respectively, is indicative of a significant degree of antitumor activity. A % ILS ≥75 or ≥50 for P388 and B16 intraperitoneal models, respectively, is indicative of a high degree of antitumor activity and is the level used by National Cancer Institute to justify further development if other requirements are met (termed DN-2 level activity). Minimum quantitative activity limits for additional P388 models (e.g. P388/ADR and P388, IJV) have not been defined. However, the activity limits specified for the intraperitoneal models may be applied as in the majority of instances these models are found to be signficantly […] challenging.
as §5

P388 leukemia = test: In vivo antitumor assay, P388(ip); conditions: P388(ip), qd 1,5,9; for ILS %: increased life span; for LOG KILL: log10 cell kill
Excerpt: as §1, §2, §7, §4, §8, §5

[4] = drug route iv, Ex 26 qd 4-11, Ex 30 qd 3-11, Ex 33 qd 3-4,7,10, read-out: MTD
[5] = drug route iv, Ex 26 qd 4-11, Ex 30 qd 3-11, Ex 33 qd 3-4,7,10
[6] = P388(ip), drug route ip, qd 1,5,9
[7] = P388(ip), drug route iv, qd 1,5,9

SMILES | MTD [1, 4] [mg/kg] | MTD ([1]; drug route sc, Ex 26 qd 3,5-7 bid 4, read-out: MTD) [mg/kg] | T/C % [2, 5] [%] | LOG KILL ([2]; drug route iv, qd 4-11, log10 cell kill) | T/C % ([2]; drug route sc, Ex 3 qd 3-12, Ex 26 qd 3,5-7 bid 4) [%] | MTD [3, 6] [mg/kg] | MTD [3, 7] [mg/kg] | ILS % (P388 leukemia; drug route ip) [%] | LOG KILL (P388 leukemia; drug route ip) | ILS % (P388 leukemia; drug route iv) [%] | LOG KILL (P388 leukemia; drug route iv) | MTD ([3]; iv) [mg/kg]
Cc1cc(-c2c(F)cc3c(=O)c(Cc4c(O)cccc4O)cn(C4CC4)c3c2F)cc(C)n1 [Example 26, 1-Cyclopropyl-6,8-difluoro-7-[2,6-dimethyl-4-pyridinyl]-3-[2,6-dihydroxyphenylmethyl]-1,4-dihydroquinoline-4-one] | 12 | 840 | 0 | 1.7 | 19 | 12 | 15 | 100 | 7.3 | 80 | 5.8 | 
Cc1cc(-c2c(F)cc3c(=O)c(Cc4ccccc4O)cn(C4CC4)c3c2F)cc(C)n1 [Example 30] | 235 |  | 5 |  |  | 456 | 120 | 120 | 8.8 | 20 | 1.5 | 
Cc1cc(-c2c(F)cc3c(=O)c(Cc4ccc(O)cc4O)cn(C4CC4)c3c2F)cc(C)n1 [Example 33] | 19 |  | 73 |  |  | 19 |  | 50 | 3.6 | 50 | 3.6 | 37
